# Reference: article PMC7570844, “Skin Damages—Structure Activity Relationship of Benzimidazole Derivatives Bearing a 5-Membered Ring System” (Molecules, 2020)
# Several values for one entry are separate records, joined by “and”; a condition that tells them apart may be missing. Equal values may be shown once. Read-outs that look alike come from different tables or passages of the source.
# Key:
# vaccinia virus = assay: microbe, parasite or virus in culture; assay type: cell-based; conditions: Orthopoxvirus vaccinia, HEL, read-out: Antiviral EC50
# [1] = tested on: Trichophyton mentagrophytes; assay: Antidermatophyte plaque growth inhibition; assay type: cell-based; conditions: for IC50: T. mentagrophytes growth, read-out: IC50; for inhibition at 100 µg/mL: read-out: Percent growth inhibition
# [2] = UV filtering parameters of cosmetic formulation on PMMA plates (modified Diffey-Robson); assay type: physicochemical
# [3] = tested on: M. gypseum, M. canis, T. mentagrophytes, T. tonsurans and E. floccosum; assay: Antidermatophyte activity, all five dermatophytes taken together; assay type: cell-based; conditions: for Activity on dermatophytes (in words) / inhibition at 100 µg/mL: 100 µg/mL; for inhibition at 100 µg/mL / IC50: all five dermatophytes; for inhibition at 100 µg/mL: read-out: Percentage of growth inhibition over the five dermatophytes; for IC50: read-out: IC50 range over the five dermatophytes
# HeLa cell cultures = conditions: human
# Microsporum gypseum = assay: Antidermatophyte plaque growth inhibition; assay type: cell-based; conditions: Nannizzia gypsea; for IC50: M. gypseum growth, read-out: IC50; for inhibition at 100 µg/mL: read-out: Percent growth inhibition
# Coxsackie virus B4 = assay: Antiviral activity in HeLa cell cultures (CPE, MTS); assay type: cell-based; conditions: Enterovirus B; Coxsackie virus B4, HeLa cells
# [4] = Ferric reducing antioxidant power (FRAP) test; conditions: mean ± SEM
# Human Coronavirus (229E) = assay: microbe, parasite or virus in culture; assay type: cell-based; conditions: HEL, read-out: Antiviral EC50
# [5] = tested on: Respiratory syncytial virus; assay: microbe, parasite or virus in culture; assay type: cell-based; conditions: human respiratory syncytial virus, HeLa cells, read-out: Antiviral EC50
# [6] = tested on: human embryonic lung (HEL) cell cultures
# [7] = tested on: human pancreatic carcinoma cells (Mia Paca-2); assay: Cell proliferation inhibition
# [8] = tested on: vesicular stomatitis virus; assay: microbe, parasite or virus in culture; assay type: cell-based; conditions: HeLa, read-out: Antiviral EC50
# [9] = tested on: herpes simplex virus-2 (G); assay: Antiviral activity in HEL cell cultures (CPE, MTS); assay type: cell-based; conditions: Human alphaherpesvirus 2; Herpes simplex virus-2, HEL cells
# [10] = tested on: herpes simplex virus-1 TK-KOS ACVr; assay: microbe, parasite or virus in culture; assay type: cell-based; conditions: Human alphaherpesvirus 1, HEL, read-out: Antiviral EC50
# [11] = tested on: human cervical carcinoma cells (HeLa); assay: Cell proliferation inhibition
# [12] = DPPH radical scavenging test; conditions: mean ± SEM; for DPPH (% Inhibition): tested at 1 mg/mL
# [13] = tested on: herpes simplex virus-1 (KOS); assay: Antiviral activity in HEL cell cultures (CPE, MTS); assay type: cell-based; conditions: Human alphaherpesvirus 1, HEL cells
# [14] = UV filtering parameters of compounds in solution (MeOH, 290-400 nm)
# [15] = tested on: HEK293T (Normal Kidney Epithelial Cells); assay: Cell proliferation inhibition, non-cancer control cells; conditions: Homo sapiens, HEK-293T
# Trichophyton tonsurans = assay: Antidermatophyte plaque growth inhibition; assay type: cell-based; conditions: for IC50: T. tonsurans growth, read-out: IC50; for inhibition at 100 µg/mL: read-out: Percent growth inhibition
# Adeno virus-2 = assay: Antiviral activity in HEL cell cultures (CPE, MTS); assay type: cell-based; conditions: Adeno virus-2, HEL cells
# [16] = tested on: human T-lymphocyte cells (CEM); assay: Cell proliferation inhibition
# Epidermophyton floccosum = assay: Antidermatophyte plaque growth inhibition; assay type: cell-based; conditions: for IC50: E. floccosum growth, read-out: IC50; for inhibition at 100 µg/mL: read-out: Percent growth inhibition
# [17] = tested on: human melanoma cells (SK-Mel 5); assay: Cell proliferation inhibition
# Microsporum canis = assay: Antidermatophyte plaque growth inhibition; assay type: cell-based; conditions: for IC50: M. canis growth, read-out: IC50; for inhibition at 100 µg/mL: read-out: Percent growth inhibition
# [18] = T. mentagrophytes, 100 µg/mL, '+' has no key
# [19] = M. gypseum, 100 µg/mL, '+' has no key
# [20] = T. tonsurans, 100 µg/mL, '+' has no key
# [21] = E. floccosum, 100 µg/mL, '+' has no key
# [22] = M. canis, 100 µg/mL, '+' has no key
smiles,measurement,setting,value
"c1c[nH]c(-c2nc3ccccc3[nH]2)c1 [Compound 10, 2-(1H-pyrrol-2-yl)-1H-benzimidazole]",EC50,vaccinia virus,> 100 µM
same,IC50,[1],1.38 ± 0.08 µg/mL
same,inhibition at 100 µg/mL,[1]; [18],96.3 ± 2.42%
same,SPF,[2]; 1% in formulation,2.44
same,UVA/UVB,[2]; 1% in formulation,0.70
same,UVAPF,[2]; 1% in formulation,1.16
same,λc,[2]; 1% in formulation,341 nm
same,SPF,[2]; 2% in formulation,2.72
same,UVA/UVB,[2]; 2% in formulation,0.73
same,UVAPF,[2]; 2% in formulation,1.32
same,λc,[2]; 2% in formulation,357 nm
same,SPF,[2]; 3% in formulation,3.06
same,UVA/UVB,[2]; 3% in formulation,0.75
same,UVAPF,[2]; 3% in formulation,1.54
same,λc,[2]; 3% in formulation,364 nm
same,melting point,,> 250 °C
same,Activity on dermatophytes (in words),[3],fungicide activity
same,inhibition at 100 µg/mL,[3],~100%
same,IC50,[3],0.97 to 3.8 µg/mL
same,Cytotoxic concentration,HeLa cell cultures,> 100 µM
same,IC50,Microsporum gypseum,1.53 ± 0.05 µg/mL
same,inhibition at 100 µg/mL,Microsporum gypseum; [19],99.1 ± 1.33%
same,EC50,Coxsackie virus B4,> 100 µM
same,FRAP,[4],1085.57 ± 0.88 µmolTE/g
same,EC50,Human Coronavirus (229E),> 100 µM
same,EC50,[5],> 100 µM
same,Cytotoxic concentration,[6],> 100 µM
same,IC50,[7],15 ± 9 µM
same,EC50,[8],> 100 µM
same,EC50,[9],> 100 µM
same,EC50,[10],> 100 µM
same,IC50,[11],37 µM
same,DPPH IC50,[12],64.098 µg/mL and 64.10 ± 3.21 µg/mL
same,EC50,[13],> 100 µM
same,UVA/UVB,[14],0.02
same,UVAPF,[14],1.16±0.05
same,λc (critical wavelength),[14],325 nm
same,IC50,[15],31 ± 3 µM
same,IC50,Trichophyton tonsurans,0.97 ± 0.06 µg/mL
same,inhibition at 100 µg/mL,Trichophyton tonsurans; [20],96.97 ± 0.62%
same,EC50,Adeno virus-2,> 100 µM
same,IC50,[16],14 ± 1 µM
same,IC50,Epidermophyton floccosum,1.07 ± 0.03 µg/mL
same,inhibition at 100 µg/mL,Epidermophyton floccosum; [21],102 ± 4.92%
same,IC50,[17],9.7 ± 1.7 µM
same,IC50,Microsporum canis,1.34 ± 0.02 µg/mL
same,inhibition at 100 µg/mL,Microsporum canis; [22],96.8 ± 3.56%
"c1csc(-c2nc3ccccc3[nH]2)c1 [Compound 12, 2-(thiophen-2-yl)-1H-benzimidazole]",EC50,vaccinia virus,> 100 µM
same,IC50,[1],1.74 ± 0.11 µg/mL
same,inhibition at 100 µg/mL,[1]; [18],98.1 ± 2.76%
same,SPF,[2]; 1% in formulation,2.41
same,UVA/UVB,[2]; 1% in formulation,0.71
same,UVAPF,[2]; 1% in formulation,1.16
same,λc,[2]; 1% in formulation,340 nm
same,SPF,[2]; 2% in formulation,2.59
same,UVA/UVB,[2]; 2% in formulation,0.70
same,UVAPF,[2]; 2% in formulation,1.22
same,λc,[2]; 2% in formulation,342 nm
same,SPF,[2]; 3% in formulation,2.79
same,UVA/UVB,[2]; 3% in formulation,0.69
same,UVAPF,[2]; 3% in formulation,1.26
same,λc,[2]; 3% in formulation,344 nm
same,Activity on dermatophytes (in words),[3],fungicide activity
same,inhibition at 100 µg/mL,[3],~100%
same,IC50,[3],0.97 to 3.8 µg/mL
same,Cytotoxic concentration,HeLa cell cultures,> 100 µM
same,IC50,Microsporum gypseum,1.55 ± 0.03 µg/mL
same,inhibition at 100 µg/mL,Microsporum gypseum; [19],100 ± 1.63%
same,EC50,Coxsackie virus B4,> 100 µM
same,FRAP,[4],75.89 ± 5.43 µmolTE/g
same,EC50,Human Coronavirus (229E),> 100 µM
same,EC50,[5],> 100 µM
same,Cytotoxic concentration,[6],> 100 µM
same,IC50,[7],≥ 100 µM
same,EC50,[8],> 100 µM
same,EC50,[9],> 100 µM
same,EC50,[10],> 100 µM
same,IC50,[11],> 100 µM
same,DPPH (% Inhibition),[12],35.05 ± 0.87%
same,EC50,[13],> 100 µM
same,UVA/UVB,[14],0.37
same,UVAPF,[14],1.49±0.07
same,λc (critical wavelength),[14],345 nm
same,IC50,[15],> 100 µM
same,IC50,Trichophyton tonsurans,2.42 ± 0.15 µg/mL
same,inhibition at 100 µg/mL,Trichophyton tonsurans; [20],97 ± 1.34%
same,EC50,Adeno virus-2,> 100 µM
same,IC50,[16],> 100 µM
same,IC50,Epidermophyton floccosum,3.8 ± 0.07 µg/mL
same,inhibition at 100 µg/mL,Epidermophyton floccosum; [21],94.7 ± 5.45%
same,IC50,[17],86 ± 17 µM
same,IC50,Microsporum canis,2.14 ± 0.09 µg/mL
same,inhibition at 100 µg/mL,Microsporum canis; [22],92.9 ± 1.33%
"O=C(O)c1ccc2[nH]c(-c3ccc[nH]3)nc2c1 [Compound 13, 2-(1H-pyrrol-2-yl)-1H-benzimidazole-5-carboxylic Acid]",EC50,vaccinia virus,> 100 µM
same,inhibition at 100 µg/mL,[1]; [18],< 0%
same,melting point,,> 250 °C
same,Cytotoxic concentration,HeLa cell cultures,> 100 µM
same,inhibition at 100 µg/mL,Microsporum gypseum; [19],3.74 ± 1.49%
same,EC50,Coxsackie virus B4,> 100 µM
same,FRAP,[4],108.89 ± 2.98 µmolTE/g
same,EC50,Human Coronavirus (229E),> 100 µM
same,EC50,[5],> 100 µM
same,Cytotoxic concentration,[6],> 100 µM
same,IC50,[7],> 100 µM
same,EC50,[8],> 100 µM
same,EC50,[9],> 100 µM
same,EC50,[10],> 100 µM
same,IC50,[11],> 100 µM
same,DPPH (% Inhibition),[12],33.00 ± 1.28%
same,EC50,[13],> 100 µM
same,SPF,[14],7.40±0.23
same,UVA/UVB,[14],0.7
same,UVAPF,[14],1.10±0.09
same,λc (critical wavelength),[14],345 nm
same,IC50,[15],> 100 µM
same,inhibition at 100 µg/mL,Trichophyton tonsurans; [20],4.55 ± 1.34%
same,EC50,Adeno virus-2,> 100 µM
same,IC50,[16],> 100 µM
same,inhibition at 100 µg/mL,Epidermophyton floccosum; [21],21.1 ± 2.14%
same,IC50,[17],> 100 µM
same,inhibition at 100 µg/mL,Microsporum canis; [22],8.66 ± 1.78%
"Nc1nc(O)c2ncn(COC(CO)CO)c2n1 [Ganciclovir, reference compound]",EC50,vaccinia virus,> 100 µM
same,Cytotoxic concentration,[6],> 250 µM
same,EC50,[9],0.01 µM
same,EC50,[10],0.2 µM
same,EC50,[13],0.01 µM
"O=S(=O)(O)c1ccc2[nH]c(-c3ccccc3)nc2c1 [PBSA, 2-phenyl-1H-benzimidazole-5-sulphonic acid, reference compound]",inhibition at 100 µg/mL,[1],< 0%
same,SPF,[2]; 1% in formulation,3.22
same,UVA/UVB,[2]; 1% in formulation,0.33
same,UVAPF,[2]; 1% in formulation,0.94
same,λc,[2]; 1% in formulation,319 nm
same,SPF,[2]; 2% in formulation,4.63
same,UVA/UVB,[2]; 2% in formulation,0.22
same,UVAPF,[2]; 2% in formulation,0.94
same,λc,[2]; 2% in formulation,321 nm
same,SPF,[2]; 3% in formulation,5.09
same,UVA/UVB,[2]; 3% in formulation,0.25
same,UVAPF,[2]; 3% in formulation,1.02
same,λc,[2]; 3% in formulation,324 nm
same,Activity on dermatophytes (in words),[3],no activity on dermatophytes
same,inhibition at 100 µg/mL,Microsporum gypseum,9.62 ± 0.61%
same,FRAP,[4],<LOQ *
same,DPPH (% Inhibition),[12],<LOQ *
same,SPF,[14],3.40±0.17
same,UVA/UVB,[14],0.29
same,UVAPF,[14],1.03±0.08
same,λc (critical wavelength),[14],322 nm
same,inhibition at 100 µg/mL,Trichophyton tonsurans,< 0%
same,inhibition at 100 µg/mL,Epidermophyton floccosum,7.41 ± 0.43%
same,inhibition at 100 µg/mL,Microsporum canis,< 0%
"NC(=O)c1ncn([C@@H]2O[C@H](CO)[C@@H](O)[C@H]2O)n1 [Ribaravin, ribavirin, reference compound]",EC50,Coxsackie virus B4,250 µM
same,EC50,[5],10 µM
same,EC50,[8],112 µM
